Results taken from ChEMBL document CHEMBL1156829 (Proc Natl Acad Sci U S A, 2008).

How the values were obtained:
Plasmodium falciparum [1] = test: NOVARTIS: Inhibition of Plasmodium falciparum W2 (drug-resistant) proliferation in erythrocyte-based infection assay; format: functional, organism-based; settings: read-out: EC50
[2] = NOVARTIS: Cytotoxicity against human hepatocellular carcinoma cell line (Huh7); format: toxicity, cell-based, Huh-7; settings: Huh7 cells (hepatocellular carcinoma cell line)
Plasmodium falciparum [3] = test: NOVARTIS: Inhibition of Plasmodium falciparum 3D7 (drug-susceptible) proliferation in erythrocyte-based infection assay; format: functional, organism-based

COc1cc(/C=C(\C#N)c2nc3ccccc3[nH]2)ccc1OCc1ccc(Cl)cc1
EC50 (Plasmodium falciparum [1]; Plasmodium falciparum, W2): 558 nM | CC50 [2]: > 10000 nM | EC50 (Plasmodium falciparum [3]; Plasmodium falciparum, 3D7): 321 nM

CCOC(=O)C(=O)N1c2ccc(C)cc2C(C)(c2ccccc2)CC1(C)C (centres undefined)
EC50 (Plasmodium falciparum [1]; Plasmodium falciparum, W2): > 1250 nM | CC50 [2]: > 10000 nM | EC50 (Plasmodium falciparum [3]; Plasmodium falciparum, 3D7): 2130 nM

CCOc1ccc(C2=NC3(CCN(C(C)C)CC3)NC(c3cc(Cl)ccc3O)C2)cc1 (centres undefined)
EC50 (Plasmodium falciparum [1]; Plasmodium falciparum, W2): 5480 nM | CC50 [2]: 59900 nM | EC50 (Plasmodium falciparum [3]; Plasmodium falciparum, 3D7): 7180 nM

COc1cc(C2C(C(=O)OCC(C)C)=C(C)NC3=C2C(=O)CC(c2ccccc2)C3)cc(Br)c1O (centres undefined)
EC50 (Plasmodium falciparum [1]; Plasmodium falciparum, W2): 911 nM | CC50 [2]: > 100000 nM | EC50 (Plasmodium falciparum [3]; Plasmodium falciparum, 3D7): 850 nM

Clc1ccc(Nc2nc(NCc3ccco3)c3ccccc3n2)cc1
EC50 (Plasmodium falciparum [1]; Plasmodium falciparum, W2): 92.4 nM | CC50 [2]: 15600 nM | EC50 (Plasmodium falciparum [3]; Plasmodium falciparum, 3D7): 113 nM

Cc1nc(-c2ccccc2)nc(C(=O)N2CCN(S(=O)(=O)/C=C/c3ccccc3)C(C)C2)c1C(=O)OCC(C)C (centres undefined)
EC50 (Plasmodium falciparum [1]; Plasmodium falciparum, W2): 785 nM | CC50 [2]: > 10000 nM | EC50 (Plasmodium falciparum [3]; Plasmodium falciparum, 3D7): 931 nM

Clc1ccccc1Nc1nc2nonc2nc1Nc1cccc(Br)c1
EC50 (Plasmodium falciparum [1]; Plasmodium falciparum, W2): > 678 nM | CC50 [2]: > 10000 nM | EC50 (Plasmodium falciparum [3]; Plasmodium falciparum, 3D7): > 1250 nM

O=C(COc1ccc(Cl)cc1)N1CCCn2cccc2C1c1ccc(Cl)cc1 (centres undefined)
EC50 (Plasmodium falciparum [1]; Plasmodium falciparum, W2): 108 nM | CC50 [2]: > 10000 nM | EC50 (Plasmodium falciparum [3]; Plasmodium falciparum, 3D7): 631 nM

Cc1ccc2[nH]c3c(NCCN4CCCCC4)ncnc3c2c1
EC50 (Plasmodium falciparum [1]; Plasmodium falciparum, W2): 99 nM | CC50 [2]: 39700 nM | EC50 (Plasmodium falciparum [3]; Plasmodium falciparum, 3D7): 216 nM

CCCCCc1ccc(OCCCC[n+]2cccc(C)c2C)c(CCCCC)c1
EC50 (Plasmodium falciparum [1]; Plasmodium falciparum, W2): 120 nM | CC50 [2]: 3000 nM | EC50 (Plasmodium falciparum [3]; Plasmodium falciparum, 3D7): 215 nM

OC1CCCCC1C1(NC(=S)Nc2ccccc2)CCCCC1 (centres undefined)
EC50 (Plasmodium falciparum [1]; Plasmodium falciparum, W2): 153 nM | CC50 [2]: 22800 nM | EC50 (Plasmodium falciparum [3]; Plasmodium falciparum, 3D7): 211 nM

O=[N+]([O-])c1ccc(-c2nc3ccccc3n2-c2cc(-c3ccccc3)nn2-c2ccccc2)cc1
EC50 (Plasmodium falciparum [1]; Plasmodium falciparum, W2): > 611 nM | CC50 [2]: > 10000 nM | EC50 (Plasmodium falciparum [3]; Plasmodium falciparum, 3D7): > 1620 nM

CCOC(=O)C1=CN(C)C=C(C(=O)OCC)C1c1cc(Br)c(OCC)c(OC)c1
EC50 (Plasmodium falciparum [1]; Plasmodium falciparum, W2): 897 nM | CC50 [2]: > 100000 nM | EC50 (Plasmodium falciparum [3]; Plasmodium falciparum, 3D7): 913 nM

CC(C)CC[n+]1ccccc1C=Cc1ccc(N(C)C)cc1
EC50 (Plasmodium falciparum [1]): 150 nM | CC50 [2]: > 30000 nM | EC50 (Plasmodium falciparum [3]): 82.9 nM

CC(C)(C)c1ccc(-c2c[n+](-c3ccccc3)c3n2CCCS3)cc1
EC50 (Plasmodium falciparum [1]; Plasmodium falciparum, W2): 313 nM | CC50 [2]: 7870 nM | EC50 (Plasmodium falciparum [3]; Plasmodium falciparum, 3D7): 221 nM

C=C[C@H]1CN2CC[C@H]1C[C@@H]2[C@@H](OC(=O)c1cccs1)c1ccnc2ccccc12
EC50 (Plasmodium falciparum [1]; Plasmodium falciparum, W2): 294 nM | CC50 [2]: > 10000 nM | EC50 (Plasmodium falciparum [3]; Plasmodium falciparum, 3D7): 1130 nM

CCC(/C=C1\Sc2ccc3ccccc3c2N1C)=C\c1sc2ccc3ccccc3c2[n+]1C
EC50 (Plasmodium falciparum [1]; Plasmodium falciparum, W2): 6370 nM | CC50 [2]: > 100000 nM | EC50 (Plasmodium falciparum [3]; Plasmodium falciparum, 3D7): 2610 nM

O=C(Cc1cccs1)NC1CCN(CC(O)CN(Cc2ccccc2)S(=O)(=O)c2ccccc2)C1 (centres undefined)
EC50 (Plasmodium falciparum [1]; Plasmodium falciparum, W2): > 1250 nM | CC50 [2]: > 10000 nM | EC50 (Plasmodium falciparum [3]; Plasmodium falciparum, 3D7): 181 nM

O=C(NN=Cc1cccc(Cl)c1)C1COc2ccccc2O1 (centres undefined)
EC50 (Plasmodium falciparum [1]; Plasmodium falciparum, W2): > 144 nM | CC50 [2]: > 10000 nM | EC50 (Plasmodium falciparum [3]; Plasmodium falciparum, 3D7): > 935 nM

CC=C[C@H]1O[C@@](O)([C@H](C)C(O)C(C)[C@@H]2OC(=O)C(OC)=CC(C)=C[C@H](C)[C@H](O)[C@H](CC)[C@H](O)C(C)CC(C)=CC=C[C@H]2OC)C[C@@H](O[C@@H]2C[C@H](O)[C@@H](OC(N)=O)[C@H](C)O2)[C@@H]1C (some centres undefined)
EC50 (Plasmodium falciparum [1]; Plasmodium falciparum, W2): < 18.6 nM | CC50 [2]: > 10000 nM | EC50 (Plasmodium falciparum [3]; Plasmodium falciparum, 3D7): > 503 nM

Oc1ccc(Nc2nc(NCc3ccco3)c3ccccc3n2)cc1
EC50 (Plasmodium falciparum [1]; Plasmodium falciparum, W2): 1110 nM | CC50 [2]: 19700 nM | EC50 (Plasmodium falciparum [3]; Plasmodium falciparum, 3D7): 86.1 nM

COC(=O)C1=CNC=C(C(=O)OC)C1c1cc(OC)c(OC)cc1OC
EC50 (Plasmodium falciparum [1]; Plasmodium falciparum, W2): 245 nM | CC50 [2]: > 10000 nM | EC50 (Plasmodium falciparum [3]; Plasmodium falciparum, 3D7): > 1350 nM

CCN(CC)CCNc1nc2cc(OC)c(OC)cc2c2nc(-c3ccccc3)nn12
EC50 (Plasmodium falciparum [1]; Plasmodium falciparum, W2): 1800 nM | CC50 [2]: 77200 nM | EC50 (Plasmodium falciparum [3]; Plasmodium falciparum, 3D7): 1670 nM

CC(C)CCNCC(O)Cn1c2ccc(Cl)cc2c2cc(Cl)ccc21 (centres undefined)
EC50 (Plasmodium falciparum [1]; Plasmodium falciparum, W2): 96.6 nM | CC50 [2]: 20600 nM | EC50 (Plasmodium falciparum [3]; Plasmodium falciparum, 3D7): 192 nM

C=CCN1/C(=C/C=C/c2sc3ccccc3[n+]2CC=C)Sc2ccccc21
EC50 (Plasmodium falciparum [1]; Plasmodium falciparum, W2): 292 nM | CC50 [2]: > 10000 nM | EC50 (Plasmodium falciparum [3]; Plasmodium falciparum, 3D7): 2030 nM

CN1C(=O)NC(c2cccnc2)C(C(=O)c2cccs2)C1(O)C(F)(F)F (centres undefined)
EC50 (Plasmodium falciparum [1]; Plasmodium falciparum, W2): > 10000 nM | CC50 [2]: > 100000 nM | EC50 (Plasmodium falciparum [3]; Plasmodium falciparum, 3D7): > 11200 nM

CNC(=O)c1ccc(NC(=O)Nc2ccc(C3=NCCCN3)cc2)cc1NC(=O)Nc1ccc(C2=NCCCN2)cc1
EC50 (Plasmodium falciparum [1]; Plasmodium falciparum, W2): 78.3 nM | CC50 [2]: > 10000 nM | EC50 (Plasmodium falciparum [3]; Plasmodium falciparum, 3D7): 126 nM

COc1cccc(N2C(N)=NC(N)=NC2(C)C)c1
EC50 (Plasmodium falciparum [1]; Plasmodium falciparum, W2): 498 nM | CC50 [2]: > 100000 nM | EC50 (Plasmodium falciparum [3]; Plasmodium falciparum, 3D7): 55.5 nM

COc1ccc2c(c1)C(C)(CC#N)C(=O)N2C (centres undefined)
EC50 (Plasmodium falciparum [1]; Plasmodium falciparum, W2): 1060 nM | CC50 [2]: > 100000 nM | EC50 (Plasmodium falciparum [3]; Plasmodium falciparum, 3D7): 5640 nM

CCOc1cc(C2CC(=O)NC3=C2C(=O)CC(c2cc(OC)ccc2OC)C3)ccc1O (centres undefined)
EC50 (Plasmodium falciparum [1]; Plasmodium falciparum, W2): 123 nM | CC50 [2]: > 100000 nM | EC50 (Plasmodium falciparum [3]; Plasmodium falciparum, 3D7): 431 nM

CC[C@@H](C(=O)[C@@H](C)[C@@H](O)[C@H](C)CCc1ccc(C)c(O)c1C(=O)O)[C@H]1O[C@](CC)([C@H]2CC[C@](O)(CC)[C@@H](C)O2)C[C@@H]1C
EC50 (Plasmodium falciparum [1]; Plasmodium falciparum, W2): 468 nM | CC50 [2]: > 10000 nM | EC50 (Plasmodium falciparum [3]; Plasmodium falciparum, 3D7): 726 nM

Cc1cccc(NC(=O)c2sc3nc4c(c(-c5cccs5)c3c2N)CCCCC4)c1
EC50 (Plasmodium falciparum [1]; Plasmodium falciparum, W2): 995 nM | CC50 [2]: > 100000 nM | EC50 (Plasmodium falciparum [3]; Plasmodium falciparum, 3D7): > 12500 nM

COc1cccc(CN2CCN(C(c3ccccc3)c3ccccc3)CC2)c1O
EC50 (Plasmodium falciparum [1]; Plasmodium falciparum, W2): 50.4 nM | CC50 [2]: 45200 nM | EC50 (Plasmodium falciparum [3]; Plasmodium falciparum, 3D7): 340 nM
